Key:
BACE1 [1] = molecular target: T1, BACE1 (Homo sapiens, UniProt P56817); assay: In Vitro Enzymatic BACE FRET (Fluorescence Resonance Energy Transfer) Assay; type: biochemical; conditions: read-out: BACE1 FRET assay
In short: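 Fluorescence read-out after Tris addition raises pH to neutrality and ends the reaction. Before that, a peptide substrate carrying fluorophore and quencher across the BACE cleavage site (50 nM) is incubated with enzyme for one hour at pH 4.2 in acetate containing 10% DMSO and sub-micellar genapol.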

BACE1 [2] = molecular target: T1, BACE1; assay: In Vitro BACE Cell-based Assay (HEK cell assay): Aβ40 in conditioned medium of cells stably expressing Amyloid Precursor Protein, sandwich ELISA; conditions: read-out: HEK cell assay
In short: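 Read-out is time-resolved fluorescence of Aβ40 in supernatant, captured by pAb40 and detected with biotinylated 6E10 plus Streptavidin-Europium. Cells stably expressing APP received compounds for 24 h over 10 concentrations starting at 100 μM or 10 μM, final DMSO 0.1%.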

[3] = in vitro BACE FRET enzyme assay, IC50 class symbols
[4] = HEK cell-based assay, Aβ40 in conditioned medium, IC50 class symbols

T1 sequence (P56817 46-501, species assumed): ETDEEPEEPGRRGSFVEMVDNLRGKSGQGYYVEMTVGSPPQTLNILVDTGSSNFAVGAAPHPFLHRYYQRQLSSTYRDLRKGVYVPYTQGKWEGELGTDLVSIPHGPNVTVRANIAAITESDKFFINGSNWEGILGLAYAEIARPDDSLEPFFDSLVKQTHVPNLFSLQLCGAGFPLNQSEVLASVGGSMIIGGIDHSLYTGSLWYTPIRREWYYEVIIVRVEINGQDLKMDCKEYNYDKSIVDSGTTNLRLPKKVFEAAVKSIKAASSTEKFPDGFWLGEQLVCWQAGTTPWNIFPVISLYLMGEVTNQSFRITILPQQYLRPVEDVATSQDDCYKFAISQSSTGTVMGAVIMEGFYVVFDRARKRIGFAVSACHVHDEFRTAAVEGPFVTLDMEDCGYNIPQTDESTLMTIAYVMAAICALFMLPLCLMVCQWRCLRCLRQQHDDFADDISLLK

COc1ccc2c(c1)[C@@]1(N=C(N)O[C@H]1C)c1cc(-c3cncnc3)ccc1O2 (single isomer, unassigned) [Example 125b]
IC50 (BACE1 [1]; Table III, IC50's in uM ranges): 0.1 to 1 µM
IC50 (BACE1 [2]; Table III, IC50's in uM ranges): 0.1 to 1 µM

NC1=N[C@@]2(CO1)c1cc(-c3cc(F)ccc3F)ccc1Oc1ncc(N3CCOCC3)cc12 [compound 461]
IC50 (BACE1 [1]): < 0.1 µM
IC50 (BACE1 [2]; HEK cells): < 0.1 µM

NC1=NC2(CO1)c1cc(C3=CCOCC3)ccc1Oc1ccc(C3=CCOCC3)cc12 [compound 757]
IC50 (BACE1 [1]): 0.1 to 1 µM
IC50 (BACE1 [2]): 0.1 to 1 µM

COc1ccc2c(c1)[C@]1(COC(N)=N1)c1cc(NC(=O)COc3ccccc3)ccc1O2 [compound 374]
IC50 (BACE1 [1]; [3]): 0.1 to 1 µM
IC50 (BACE1 [2]; [4]): 1 to 5 µM

NC1=N[C@@]2(CO1)c1cc(-c3cccnc3)ccc1Oc1cnc(-c3cccnc3)cc12 [compound 184]
IC50 (BACE1 [1]; Table III, IC50's in uM ranges): < 0.1 µM
IC50 (BACE1 [2]; Table III, IC50's in uM ranges): < 0.1 µM

CC(C)N1CC=C(c2ccc3c(c2)[C@]2(COC(N)=N2)c2cc(-c4cncnc4)ccc2O3)CC1 [compound 714]
IC50 (BACE1 [1]): 0.1 to 1 µM
IC50 (BACE1 [2]): < 0.1 µM

NC1=N[C@@]2(CO1)c1cc(-c3cncnc3)ccc1Oc1c(F)cc(OCC3CCOCC3)cc12 [compound 417]
IC50 (BACE1 [1]; [3]): < 0.1 µM
IC50 (BACE1 [2]; [4]): < 0.1 µM

NC1=N[C@]2(CO1)c1cc(C#CC3CCCCC3)ccc1Oc1ccc(-c3cncnc3)cc12 [compound 138]
IC50 (BACE1 [1]; Table III, IC50's in uM ranges): < 0.1 µM
IC50 (BACE1 [2]; Table III, IC50's in uM ranges): 0.1 to 1 µM

Cc1ccc(-n2ccc3c(c2=O)[C@]2(COC(N)=N2)c2cc(-c4cccnc4)ccc2O3)cc1 [compound 504]
IC50 (BACE1 [1]): 0.1 to 1 µM
IC50 (BACE1 [2]; HEK cells): 0.1 to 1 µM

CC(C)(C#N)COc1ccc2c(c1)[C@]1(COC(N)=N1)c1cc(C#CC3CC3)ccc1O2 [compound 178]
IC50 (BACE1 [1]; Table III, IC50's in uM ranges): < 0.1 µM
IC50 (BACE1 [2]; Table III, IC50's in uM ranges): 0.1 to 1 µM

CC1(C)CC1c1cc2c(cn1)Oc1ccc(-c3cccnc3)cc1[C@]21COC(N)=N1 (stereo partly shown) [compound 677]
IC50 (BACE1 [1]): < 0.1 µM
IC50 (BACE1 [2]): 0.1 to 1 µM

C=C(C)COc1ccc2c(c1)[C@]1(COC(N)=N1)c1cc(-c3cncnc3)ccc1O2 [compound 139]
IC50 (BACE1 [1]; Table III, IC50's in uM ranges): < 0.1 µM
IC50 (BACE1 [2]; Table III, IC50's in uM ranges): < 0.1 µM

CC(C)(F)COc1cnc2c(c1)[C@]1(COC(N)=N1)c1cc(-c3cccnc3F)ccc1O2 [compound 449]
IC50 (BACE1 [1]): < 0.1 µM
IC50 (BACE1 [2]; HEK cells): < 0.1 µM

NC1=N[C@]2(CO1)c1ccccc1Oc1ccc(-c3cccc4ncccc34)cc12 [compound 627]
IC50 (BACE1 [1]; Table IV, class symbols): > 5 µM
IC50 (BACE1 [2]; Table IV, class symbols): > 5 µM

COc1ccc2c(c1)[C@]1(COC(N)=N1)c1cc(-c3cncnc3)ccc1O2 [Example 10, (4S)-2′-methoxy-7′-(5-pyrimidinyl)spiro[1,3-oxazole-4,9′-xanthen]-2-amine]
IC50 (BACE1 [1]; Table 1): 0.1 to 1 µM
IC50 (BACE1 [2]; Table 1, Aβ40, 24 h incubation): 1 to 5 µM

Cn1cc(-c2cc(F)c3c(c2)[C@]2(COC(N)=N2)c2cc(-c4cccnc4)ccc2O3)cn1 [compound 509, (4S)-4′-fluoro-2′-(1-methyl-1H-pyrazol-4-yl)-7′-(3-pyridinyl)spiro[1,3-oxazole-4,9′-xanthen]-2-amine]
IC50 (BACE1 [1]): < 0.1 µM
IC50 (BACE1 [2]; HEK cells): < 0.1 µM

CC1(C#Cc2cc(F)c3c(c2)[C@]2(COC(N)=N2)c2cc(-c4cncnc4)ccc2O3)COC1 [compound 475]
IC50 (BACE1 [1]): < 0.1 µM
IC50 (BACE1 [2]; HEK cells): < 0.1 µM

NC1=N[C@@]2(CO1)c1cc(-c3cc(C4=CCOCC4)ccc3F)ccc1Oc1cnc(C3=CCOCC3)cc12 [compound 423]
IC50 (BACE1 [1]): < 0.1 µM
IC50 (BACE1 [2]; HEK cells): 0.1 to 1 µM

NC1=N[C@@]2(CO1)c1cc(-c3cccnc3)ccc1Oc1cnc(N3CCOCC3)cc12 [compound 335]
IC50 (BACE1 [1]; [3]): < 0.1 µM
IC50 (BACE1 [2]; [4]): < 0.1 µM

NC1=N[C@]2(CO1)c1cc(/C=C/C(=O)O)ccc1Oc1ccc(-c3cccnc3)cc12 [compound 949]
IC50 (BACE1 [1]): < 0.1 µM
IC50 (BACE1 [2]): > 5 µM

CC(C)(C)OC(=O)N1CC=C(c2ccc3c(c2)[C@]2(COC(N)=N2)c2cc(-c4cccnc4)ccc2O3)CC1 [compound 819]
IC50 (BACE1 [1]; Table IV, class symbols): < 0.1 µM
IC50 (BACE1 [2]; Table IV, class symbols): 0.1 to 1 µM

CC(C)(O)C#Cc1ccc2c(c1)[C@]1(COC(N)=N1)c1cc(-c3cccnc3)ccc1O2 [151a]
IC50 (BACE1 [1]; Table III, IC50's in uM ranges): < 0.1 µM
IC50 (BACE1 [2]; Table III, IC50's in uM ranges): < 0.1 µM

NC1=N[C@]2(CO1)c1cc(OCC(O)(C(F)(F)F)C(F)(F)F)ccc1Oc1ccc(-c3cccnc3)cc12 [compound 894]
IC50 (BACE1 [1]; Table IV, class symbols): < 0.1 µM
IC50 (BACE1 [2]; Table IV, class symbols): 0.1 to 1 µM

CC(=O)c1cccc(-c2ccc3c(c2)[C@]2(COC(N)=N2)c2cc(-c4cncnc4)ccc2O3)c1 [compound 889]
IC50 (BACE1 [1]; Table IV, class symbols): < 0.1 µM
IC50 (BACE1 [2]; Table IV, class symbols): < 0.1 µM

CC(=O)COc1ccc2c(c1)[C@@]1(COC(N)=N1)c1cc(-c3cccnc3)cnc1O2 [compound 926]
IC50 (BACE1 [1]): 0.1 to 1 µM
IC50 (BACE1 [2]): 0.1 to 1 µM

NC1=N[C@@]2(CO1)c1cc(-c3cccnc3)ccc1Oc1cnc(N3CCCCC3)cc12 [compound 445]
IC50 (BACE1 [1]): < 0.1 µM
IC50 (BACE1 [2]; HEK cells): < 0.1 µM

Cc1ccccc1-c1ccc2c(c1)[C@]1(COC(N)=N1)c1cccnc1O2 [compound 609]
IC50 (BACE1 [1]; Table IV, class symbols): > 5 µM
IC50 (BACE1 [2]; Table IV, class symbols): > 5 µM

NC1=NC2(CO1)c1cc(-c3ccc(F)nc3)ccc1Oc1ccc(-c3ccc(F)nc3)cc12 [compound 196]
IC50 (BACE1 [1]; Table III, IC50's in uM ranges): < 0.1 µM
IC50 (BACE1 [2]; Table III, IC50's in uM ranges): 0.1 to 1 µM

COC(C)(C)C#Cc1cnc2c(c1)[C@@]1(COC(N)=N1)c1cc(-c3ccc(F)nc3)ccc1O2 [compound 723]
IC50 (BACE1 [1]): 0.1 to 1 µM
IC50 (BACE1 [2]): 1 to 5 µM

CC(C)(C)COc1ccc2c(c1)[C@@]1(COC(N)=N1)c1cc(C(=O)N3CCCC3)ccc1O2 [compound 992]
IC50 (BACE1 [1]): 0.1 to 1 µM
IC50 (BACE1 [2]): 1 to 5 µM

COc1ccc(-c2ccc3c(c2)[C@]2(COC(N)=N2)c2cc(-c4cccnc4)ccc2O3)o1 [compound 711]
IC50 (BACE1 [1]): < 0.1 µM
IC50 (BACE1 [2]): 0.1 to 1 µM

COc1ccc2c(c1)[C@@]1(COC(N)=N1)c1cc(-c3cncnc3)cnc1O2 [compound 669]
IC50 (BACE1 [1]): 1 to 5 µM
IC50 (BACE1 [2]): 1 to 5 µM

CC(C)(C)C#Cc1ccc2c(c1)[C@]1(COC(N)=N1)c1cc(C3=CCOCC3)ncc1O2 [compound 800]
IC50 (BACE1 [1]; Table IV, class symbols): 0.1 to 1 µM
IC50 (BACE1 [2]; Table IV, class symbols): 1 to 5 µM

NC1=N[C@@]2(CO1)c1cc(-c3cccnc3F)ccc1Oc1ccc(-c3ccnc(F)c3)nc12 [compound 399]
IC50 (BACE1 [1]; [3]): < 0.1 µM
IC50 (BACE1 [2]; [4]): 0.1 to 1 µM

NC1=N[C@@]2(CO1)c1ccccc1Oc1ccc(-c3cccnc3F)cc12 [compound 641]
IC50 (BACE1 [1]; Table IV, class symbols): 0.1 to 1 µM
IC50 (BACE1 [2]; Table IV, class symbols): 1 to 5 µM

CC(C)(C)C#Cc1cnc2c(c1)[C@]1(COC(N)=N1)c1cc(-c3cncnc3)cc(F)c1O2 [compound 537]
IC50 (BACE1 [1]; Table IV, class symbols): < 0.1 µM
IC50 (BACE1 [2]; Table IV, class symbols): 0.1 to 1 µM

NC1=N[C@]2(CO1)c1cc(OC[C@@H](O)C(F)(F)F)ccc1Oc1ccc(-c3cccnc3)cc12 [compound 925]
IC50 (BACE1 [1]): < 0.1 µM
IC50 (BACE1 [2]): 0.1 to 1 µM

CC(C)(C)COc1ccc2c(n1)[C@@]1(COC(N)=N1)c1cc(Br)ccc1O2 [compound 734]
IC50 (BACE1 [1]): > 5 µM
IC50 (BACE1 [2]): > 5 µM

CC(C)(C)CC(O)c1ccc2c(c1)[C@]1(COC(N)=N1)c1cc(-c3ccc(F)nc3)ccc1O2 (stereo partly shown) [162a]
IC50 (BACE1 [1]; Table III, IC50's in uM ranges): 0.1 to 1 µM
IC50 (BACE1 [2]; Table III, IC50's in uM ranges): 0.1 to 1 µM

CC(=O)COc1ccc2c(c1)[C@]1(COC(N)=N1)c1cc(-c3cccnc3)cnc1O2 [compound 865]
IC50 (BACE1 [1]; Table IV, class symbols): 1 to 5 µM
IC50 (BACE1 [2]; Table IV, class symbols): 1 to 5 µM

C=C(C)COc1ccc2c(c1)[C@]1(COC(N)=N1)c1cc(-c3cccnc3)ccc1O2 [compound 146]
IC50 (BACE1 [1]; Table III, IC50's in uM ranges): < 0.1 µM
IC50 (BACE1 [2]; Table III, IC50's in uM ranges): 0.1 to 1 µM

NC1=N[C@]2(CO1)c1cc(-c3cccnc3)ccc1Oc1ncc(Br)cc12 [compound 174]
IC50 (BACE1 [1]; Table III, IC50's in uM ranges): < 0.1 µM
IC50 (BACE1 [2]; Table III, IC50's in uM ranges): 0.1 to 1 µM

CCCOc1ccc2c(c1)[C@]1(COC(N)=N1)c1cc(-c3cncnc3)ccc1O2 [Example 5, (4S)-2′-propoxy-7′-(5-pyrimidinyl)spiro[1,3-oxazole-4,9′-xanthen]-2-amine]
IC50 (BACE1 [1]; Table 1): < 0.1 µM
IC50 (BACE1 [2]; Table 1, Aβ40, 24 h incubation): < 0.1 µM

CC(C)(C)COc1ccc2c(c1)[C@]1(COC(N)=N1)c1cc(CO)ccc1O2 [compound 828]
IC50 (BACE1 [1]; Table IV, class symbols): 1 to 5 µM
IC50 (BACE1 [2]; Table IV, class symbols): 1 to 5 µM

CN1CCN(c2ccc3c(c2)[C@@]2(COC(N)=N2)c2cc(OCC(C)(C)C)ccc2O3)CC1 [compound 812]
IC50 (BACE1 [1]; Table IV, class symbols): 1 to 5 µM
IC50 (BACE1 [2]; Table IV, class symbols): 0.1 to 1 µM

COC(C)(C)C#Cc1ccc2c(c1)[C@]1(COC(N)=N1)c1cc(-c3cccnc3)cnc1O2 [208b]
IC50 (BACE1 [1]; Table III, IC50's in uM ranges): < 0.1 µM
IC50 (BACE1 [2]; Table III, IC50's in uM ranges): < 0.1 µM

Cc1ccc(-n2ccc3c(c2=O)[C@@]2(COC(N)=N2)c2cc(-c4cccnc4)ccc2O3)cc1 [compound 566]
IC50 (BACE1 [1]; Table IV, class symbols): 0.1 to 1 µM
IC50 (BACE1 [2]; Table IV, class symbols): 0.1 to 1 µM
